This note sets out measurements from US12590071B2, “Hydrazone derivative in which terminal amine group is substituted with aryl group or heteroaryl group, and use thereof” (KOREA INSTITUTE OF SCIENCE AND TECHNOLOGY, priority 2018, dated 2026).

In one data set the test system is Tau-BiFC cells. Kind of data set: Cytotoxicity (cell survival rate) in tau-BiFC cells. Conditions: group treated with Forskolin alone = 100%. Put shortly:
(§1)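 Tau-BiFC cells co-treated 48 h with Forskolin ([…]) and compound at 0.03–30 μM. BiFC fluorescence quantified by imaging, IC50 by nonlinear regression; cytotoxicity as Hoechst-stained nuclei count relative to Forskolin-only wells (100% survival).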

The nature of data set [1]: Liver microsomal stability (human). Conditions: amount of substrate remaining; 1 μM, 0.25 mg/mL microsomes, 37° C., 30 minutes. The data set is classed as in vitro ADME. Put shortly: (§2)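 Compound at 1 μM with microsomes (0.25 mg/mL each species) in 0.1 M phosphate buffer pH 7.4, preincubated 5 min at 37 °C, then 30 min at 37 °C after NADPH-generating system addition. Quenched with acetonitrile plus internal standard; remaining substrate measured by LC-MS/MS.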

For a further data set, the target named is T1, CYP3A4 (Homo sapiens, UniProt P08684).
T1 construct: human liver microsomes (0.25 mg/mL); from tissue; host or cells: human liver microsomes
Description: Inhibition of CYP coenzyme activity in human liver microsomes. The data set is classed as in vitro ADME. Details: scale not given here. Conditions: compound 10 PM (so in the source); human liver microsomes 0.25 mg/mL; substrate midazolam; 15 minutes. Put shortly:
(§3)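 Human liver microsomes (0.25 mg/mL) in 0.1 M phosphate pH 7.4 with a substrate cocktail (phenacetin 50 μM, diclofenac 10 μM, S-mephenytoin 100 μM, dextromethorphan 5 μM, midazolam 2.5 μM) and compound at 0 or 10 μM. Preincubated 5 min at 37 °C, then 15 min with NADPH system. Metabolites quantified by LC-MS/MS (MRM).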

Data set [2] can be described thus: Liver microsomal stability (rat). In kind it is in vitro ADME. Conditions: amount of substrate remaining; 1 μM, 0.25 mg/mL microsomes, 37° C., 30 minutes. The method, boiled down:
as §2
A general note: Liver microsomes are a subcellular fraction often used to study metabolism.

The target of another data set is T2, tau protein (Homo sapiens, UniProt P10636).
T2 construct: expressed in transfected cells
Kind of data set: Tau protein aggregation inhibition in tau-BiFC cell model. In kind it is cell-based. Conditions: tau-BiFC cells treated together with Forskolin, 48 hours. Put shortly: as §1

A short description of data set [3]: Liver microsomal stability (dog). Conditions: amount of substrate remaining; 1 μM, 0.25 mg/mL microsomes, 37° C., 30 minutes. In kind it is in vitro ADME. The method, boiled down:
as §2

Data set [4] is described as follows: Pharmacokinetics in SD rat (plasma PK parameters). The data set is classed as in vivo. Conditions: for AUCall / clearance / half-life / Cmax / Tmax: SD rat plasma; for F: SD rat, PO 10 mg/kg versus IV. As for the experimental part: Specifically, an SD rat of 7 to 8 weeks of age (Core Tech, Hana Trading Co., Ltd.) having a body weight of about 250 g to 300 g was purchased, and was managed in a simple breeding room for small animals set to a temperature of 22° C.±2° C., a relative humidity of 50%±5%, a lighting time of 12 hours (light up at 8:00 A.M., turn off at 8:00 P.M.), and an illuminance of 150 lux to 300 lux. During the entire test period, feed was freely provided, RO water was freely provided, and fasting was performed for 16 hours before the oral administration of a drug. After preparing a drug under the conditions shown in Table 5 below, the drug was intravenously injected (IV) or orally administered (PO). 500 µL of transfused blood was collected in a tube containing sodium heparin and centrifuged at 2° C. to 8° C. at 8,000 rpm for 6 minutes to obtain plasma from the blood. The obtained plasma was added to 180 μL of acetonitrile containing internal standard materials, vortexed, and then centrifuged at 15,000 rpm at 4° C. for 5 minutes to obtain a supernatant. The obtained supernatant was analyzed by LC-MS/MS.
Specific PK parameters were acquired using the Phoenix WinNonlin version 6.4 program (Phersight, USA) and wore calculated with a non-compartmental analysis model.

The nature of data set [5]: Liver microsomal stability (mouse). The data set is classed as in vitro ADME. Conditions: amount of substrate remaining; 1 μM, 0.25 mg/mL microsomes, 37° C., 30 minutes. Put shortly:
as §2

The target of the next data set is T3, CYP2D6 (Homo sapiens, UniProt P10635).
T3 construct: human liver microsomes (0.25 mg/mL); from tissue; host or cells: human liver microsomes
Kind of data set: Inhibition of CYP coenzyme activity in human liver microsomes. The data set is classed as in vitro ADME. Conditions: compound 10 PM (so in the source); human liver microsomes 0.25 mg/mL; substrate dextromethorphan; 15 minutes. The method, boiled down:
as §3

The structures appear in SMILES notation.

One may read the IC50 as the concentration needed to halve the response being measured. By clearance is commonly meant a measure of how efficiently the substance is removed, as volume per time. One may read the half-life as the time needed for the level to fall by half in the phase considered. By Cmax is commonly meant the peak of the concentration-time curve. As a reminder, the Tmax is the time from dosing to the highest level.

T3 sequence (P10635 whole entry): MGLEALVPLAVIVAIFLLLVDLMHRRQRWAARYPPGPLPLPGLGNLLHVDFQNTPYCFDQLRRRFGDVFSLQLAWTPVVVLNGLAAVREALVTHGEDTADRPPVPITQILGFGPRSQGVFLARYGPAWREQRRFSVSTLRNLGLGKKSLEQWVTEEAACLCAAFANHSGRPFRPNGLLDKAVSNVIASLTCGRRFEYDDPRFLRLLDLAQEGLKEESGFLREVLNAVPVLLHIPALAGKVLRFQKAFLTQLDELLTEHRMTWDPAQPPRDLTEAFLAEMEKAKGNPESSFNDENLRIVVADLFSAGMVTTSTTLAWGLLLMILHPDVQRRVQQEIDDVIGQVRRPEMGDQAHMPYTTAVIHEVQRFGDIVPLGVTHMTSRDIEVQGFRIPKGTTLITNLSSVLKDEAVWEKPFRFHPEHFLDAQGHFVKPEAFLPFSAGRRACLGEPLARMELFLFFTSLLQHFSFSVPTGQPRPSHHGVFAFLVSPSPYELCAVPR
T2 sequence (P10636 2-441 isoform P10636-8 limits assumed): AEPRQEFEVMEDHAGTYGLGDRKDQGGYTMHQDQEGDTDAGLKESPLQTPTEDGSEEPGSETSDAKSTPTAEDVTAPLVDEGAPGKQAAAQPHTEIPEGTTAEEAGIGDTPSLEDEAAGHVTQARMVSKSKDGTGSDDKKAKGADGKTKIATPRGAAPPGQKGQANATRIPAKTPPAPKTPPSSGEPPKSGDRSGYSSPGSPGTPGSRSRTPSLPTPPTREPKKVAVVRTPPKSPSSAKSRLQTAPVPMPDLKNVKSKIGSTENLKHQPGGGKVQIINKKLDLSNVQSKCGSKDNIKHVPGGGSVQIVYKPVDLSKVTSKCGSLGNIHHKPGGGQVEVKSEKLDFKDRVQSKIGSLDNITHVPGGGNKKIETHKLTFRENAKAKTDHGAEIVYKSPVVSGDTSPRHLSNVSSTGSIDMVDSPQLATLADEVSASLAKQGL
T1 sequence (P08684 whole entry): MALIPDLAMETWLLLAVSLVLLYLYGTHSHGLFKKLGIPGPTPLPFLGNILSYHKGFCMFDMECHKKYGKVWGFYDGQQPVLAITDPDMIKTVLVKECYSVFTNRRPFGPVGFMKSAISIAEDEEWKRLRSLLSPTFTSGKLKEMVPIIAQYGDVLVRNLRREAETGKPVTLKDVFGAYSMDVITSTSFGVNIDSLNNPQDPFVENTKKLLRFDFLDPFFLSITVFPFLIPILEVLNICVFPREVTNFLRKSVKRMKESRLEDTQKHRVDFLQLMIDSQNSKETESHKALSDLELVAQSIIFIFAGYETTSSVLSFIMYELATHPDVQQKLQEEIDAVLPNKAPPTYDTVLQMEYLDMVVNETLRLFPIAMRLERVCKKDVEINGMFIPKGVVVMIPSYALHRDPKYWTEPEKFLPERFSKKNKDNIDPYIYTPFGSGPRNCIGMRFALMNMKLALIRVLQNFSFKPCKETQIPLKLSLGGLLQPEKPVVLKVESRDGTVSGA

Consider `N#CC(C#N)=NNc1ccc(-c2ncccn2)cc1` [Compound 1, (4-(pyrimidin-2-yl)phenyl)carbonohydrazonoyl dicyanide], for which the “Cell survival rate (% @ 10 μM)” value with Tau-BiFC cells is given as 74%. Besides, the “liver microsomal stability, Human (%)” value in data set [1] was 44.1%. Further, the “inhibition effects of CYP coenzyme activity, CYP3A4” value (from here on “inhibition effects … CYP3A4”) against CYP3A4 came to 89.4. For the same compound, the “liver microsomal stability, Rat (%)” value in [2] is 28.3%. This compound registered an IC50 on tau protein of 0.49 µM. In addition, the “liver microsomal stability, Dog (%)” value in data set [3] is reported as 5.7%. In data set [4] (IV 1 mg/kg), the AUCall is 7260.0 ± 580.1 hr, ng/mL; the clearance was found to be 11.5 ± 0.9 mL/min/kg; the half-life was 1.1 ± 1 h. In [4] (PO 10 mg/kg), the AUCall is 4652.8 ± 1158.9 hr, ng/mL; the concentration peaked (Cmax) at 1840 ± 609 ng/mL; the time of peak concentration (Tmax) came to 1.7 ± 2.9 h; the half-life was 1.6 ± 1.6 h. The F in data set [4] is 32%. The “liver microsomal stability, Mouse (%)” value in [5] was 86.1%. In addition, at CYP2D6, the “inhibition effects of CYP coenzyme activity, CYP2D6” value (from here on “inhibition effects … CYP2D6”) was 98.4.
As for `N#CC(C#N)=NNc1ccc(-c2ncc(F)cn2)cc1` [Compound 2, (4-(5-fluoropyrimidin-2-yl)phenyl)carbonohydrazonoyl dicyanide], the “Cell survival rate (% @ 10 μM)” value in the data set with Tau-BiFC cells stood at 59%. Besides, in data set [1], the “liver microsomal stability, Human (%)” value stood at 92.7%. Further, the “inhibition effects … CYP3A4” value against CYP3A4 is given as more than 100. Also, the “liver microsomal stability, Rat (%)” value in data set [2] was determined as 97.2%. On tau protein, this compound displayed an IC50 of 1.3 µM. The “liver microsomal stability, Dog (%)” value in data set [3] came to 92.1%. Also, in [4] (IV 1 mg/kg), the AUCall is reported as 7335.6 ± 1794.1 hr, ng/mL; the maximum concentration (Cmax) came to 4280 ± 1390 ng/mL; the time of peak concentration (Tmax) was 5.5 ± 1 h; the clearance came to 2.4 ± 0.7 mL/min/kg. The compound also had a half-life in data set [4] (IV 1 mg/kg) of 1.2 ± 0.3 h. Besides, the AUCall in data set [4] (PO 10 mg/kg) was 19890.5 ± 6049.3 hr, ng/mL. This compound also registered a F in data set [4] of 27.1%. The “liver microsomal stability, Mouse (%)” value in data set [5] is on record as 6.4%. Moreover, the “inhibition effects … CYP2D6” value against CYP2D6 is 74.3.
As to `Cc1ncc(-c2ccc(NN=C(C#N)C#N)cc2)s1` [Compound 11, (4-(2-methylthiazol-5-yl)phenyl)carbonohydrazonoyl dicyanide], in the data set with Tau-BiFC cells, the “Cell survival rate (% @ 10 μM)” value was determined as 146.2%. In addition, the “liver microsomal stability, Human (%)” value in data set [1] amounted to 87.5%. Also, the “inhibition effects … CYP3A4” value against CYP3A4 is 97.6. Also, the “liver microsomal stability, Rat (%)” value in [2] came out at 49.6%. The compound further returned an IC50 against tau protein of 0.05 µM. The “liver microsomal stability, Dog (%)” value in [3] came to 79.6%. In [4] (IV 2 mg/kg), the AUCall is recorded as 11800.37 hr, ng/mL; the Cmax came to 10700 ng/mL; the time to peak (Tmax) was determined as 0.08 h; the clearance was 2.84 mL/min/kg. In data set [4] (IV 2 mg/kg), this compound showed a half-life of 1.05 h. Moreover, in data set [4] (PO 10 mg/kg), the AUCall is on record as 19169.2 hr, ng/mL; the Cmax is 6900 ng/mL; the time to peak (Tmax) was 0.25 h; the half-life is 2.96 h. This compound came in with a F in data set [4] of 32.5%. For the same compound, the “liver microsomal stability, Mouse (%)” value in data set [5] was determined as 65.6%. In addition, the “inhibition effects … CYP2D6” value at CYP2D6 came to 81.9.
Regarding `N#CC(C#N)=NNc1ccc(-c2cnc3ccnn3c2)cc1` [Compound 50, (4-(pyrazolo[1,5-a]pyrimidin-6-yl)phenyl)carbonohydrazonoyl dicyanide], the “Cell survival rate (% @ 10 μM)” value with Tau-BiFC cells is given as 76%. Further, the “liver microsomal stability, Human (%)” value in [1] was 81.1%. Moreover, the “inhibition effects … CYP3A4” value at CYP3A4 was found to be 95. Also, in data set [2], the “liver microsomal stability, Rat (%)” value turned out to be 85.7%. Further, at tau protein, inhibition was half-maximal at 0.73 µM (IC50). The “liver microsomal stability, Dog (%)” value in data set [3] came to 88.9%. Moreover, in data set [4] (IV 1 mg/kg), the AUCall was 8149.7 ± 1421.0 hr, ng/mL; the clearance is 2 ± 0.3 mL/min/kg; the half-life is 1.9 ± 0.3 h. In addition, in data set [4] (PO 10 mg/kg), the AUCall is listed as 6726.6 ± 2700.2 hr, ng/mL; the peak level (Cmax) was 1330 ± 788 ng/mL; the Tmax stood at 5 ± 2 h. Besides, the F in [4] is given as 8.3%. Besides, in [5], the “liver microsomal stability, Mouse (%)” value is 89.5%. Also, the “inhibition effects … CYP2D6” value against CYP2D6 was more than 100.
Take `Cc1cnc(C(=O)Nc2nc3ccc(NN=C(C#N)C#N)cc3s2)cn1` [Compound 93, (2-(5-methylpyrazine-2-carboxamido)benzo[d]thiazol-6-yl)carbonohydrazonoyl dicyanide]: the “Cell survival rate (% @ 10 μM)” value in the data set on Tau-BiFC cells is recorded as 129.2%. In addition, the “liver microsomal stability, Human (%)” value in [1] amounted to 83.9%. On CYP3A4, the “inhibition effects … CYP3A4” value is 91.5. Besides, in [2], the “liver microsomal stability, Rat (%)” value came out at 63.3%. Moreover, it took 0.06 µM to reach half-maximal inhibition on tau protein (IC50). Also, in data set [3], the “liver microsomal stability, Dog (%)” value stood at 60.4%. Further, in [4] (IV 1 mg/kg), the AUCall is 6059.4 ± 548.0 hr, ng/mL; the clearance turned out to be 2.7 ± 0.3 mL/min/kg; the half-life is 1.7 ± 0.1 h. Further, in [4] (PO 10 mg/kg), the AUCall is 13884.8 ± 3420.9 hr, ng/mL; the highest level (Cmax) was 2570 ± 423 ng/mL; the Tmax stood at 5 ± 1.2 h. Moreover, the F in [4] stood at 22.9%. Besides, the “liver microsomal stability, Mouse (%)” value in [5] amounted to 37.3%. Moreover, the “inhibition effects … CYP2D6” value on CYP2D6 came to 85.6.
